“Also recorded” adds a separate entry of the source.
Test system: B6 G93A mice
Experiment: Survival study, congenic B6 G93A/YFP mice, S-XL6 50 mg/kg SC on weekdays from day 108
Assay type: in vivo, mouse
Design: Dosed remained: unit not given here
Text: Two fALS lines were used to assess survival in genetic backgrounds with different disease severity. […] Dose and dose regimen were estimated from the blood PK/PD profile and BBB penetration described above. A subcutaneous (SC) route of administration was chosen because in our hands it results in more precise delivery. […] In both studies, mice were gender and littermate matched and non ALS-related deaths were excluded. We are currently developing the methods necessary for quantifying copy number and cannot rule out reduced SOD1 expression as having contributed to the survival benefit in treated B6 G93A mice.
The first line was derived by crossing (over >10 generations) congenic fALS “B6 G93A mice” (B6.Cg-Tg(SOD1*G93A)1Gur/J, Stock No. 004435, The Jackson Laboratory, Bar Harbor, Maine, USA) with “YFP-16 mice” [50] (B6.Cg-Tg(Thy1-YFP)16Jrs/J, Stock No. 003709, The Jackson Laboratory, Bar Harbor, Maine, USA). This line maintains the C57BL/6J genetic background and expresses YFP in motor and sensory neurons to enable cellular-level molecular profiling in future studies. The second line is the standard “Hybrid B6SJL G93A mice” (B6SJL-Tg(SOD1*G93A)1Gur/J Stock No. 002726, The Jackson Laboratory, Bar Harbor, Maine, USA). Methods for survival studies have been described and followed the conventions for optimal trial design with fALS mice. Mice were tested for difference in: (1) disease onset (at least a 20% decrease in grip strength and open-field motor performance, which we expect to correlate with change in weight); (2) disease end-stage (disease score, e.g., loss of righting reflex); and (3) weight. The hybrid line was additionally tested for differences in forelimb and hindlimb grip strength.

What does the source list for [O-][S+]1CCCCS1 (stereo not shown) [S-XL6, 1,2-dithiane-1-oxide]?
survival benefit (50 mg/kg SC from day 108): modest survival benefit; also recorded: modest survival improvement; clinical signs immediately after dosing (SC dosing): lethargy and shaking that subsided after 20 min; Dosed remained (day 0): 100; Dosed remained (day 125): 100; Dosed remained (day 125.999): 100; Dosed remained (day 127.999): 100; Dosed remained (day 128): 100; Dosed remained (day 128.999): 100; Dosed remained (day 129): 100; Dosed remained (day 129.999): 100; Dosed remained (day 130): 100; Dosed remained (day 130.999): 100; Dosed remained (day 131): 100; Dosed remained (day 131.999): 100; Dosed remained (day 132): 100; Dosed remained (day 132.999): 100; Dosed remained (day 133): 100; Dosed remained (day 133.999): 100; Dosed remained (day 134): 100; Dosed remained (day 134.999): 100; Dosed remained (day 135): 100; Dosed remained (day 135.999): 100; Dosed remained (day 136): 100; Dosed remained (day 136.999): 100; Dosed remained (day 137): 100; Dosed remained (day 137.999): 100; Dosed remained (day 138): 100; Dosed remained (day 138.999): 100; Dosed remained (day 139): 100; Dosed remained (day 139.999): 100; Dosed remained (day 140): 100; Dosed remained (day 140.999): 100; Dosed remained (day 141): 100; Dosed remained (day 141.999): 100; Dosed remained (day 142): 100; Dosed remained (day 142.999): 100; Dosed remained (day 143): 100; Dosed remained (day 143.999): 100; Dosed remained (day 144): 100; Dosed remained (day 144.999): 100; Dosed remained (day 145): 100; Dosed remained (day 145.999): 100; Dosed remained (day 146): 100; Dosed remained (day 146.999): 100; Dosed remained (day 147): 100; Dosed remained (day 147.999): 100; Dosed remained (day 148): 100; Dosed remained (day 148.999): 100; Dosed remained (day 149): 100; Dosed remained (day 149.999): 100; Dosed remained (day 150): 100; Dosed remained (day 150.999): 100; Dosed remained (day 151): 100; Dosed remained (day 151.999): 100; Dosed remained (day 152): 100; Dosed remained (day 152.999): 100; Dosed remained (day 153): 100; Dosed remained (day 153.999): 100; Dosed remained (day 154): 100; Dosed remained (day 154.999): 100; Dosed remained (day 155): 100; Dosed remained (day 155.999): 100; Dosed remained (day 156): 100; Dosed remained (day 156.999): 100; Dosed remained (day 157): 70; Dosed remained (day 172.999): 30; Dosed remained (day 173): 30; Dosed remained (day 173.999): 30; Dosed remained (day 174): 30; Dosed remained (day 174.999): 30; Dosed remained (day 175): 30; Dosed remained (day 175.999): 30; Dosed remained (day 176): 30; Dosed remained (day 176.999): 30; Dosed remained (day 177): 30; Dosed remained (day 177.999): 30; Dosed remained (day 178): 20; Dosed remained (day 178.999): 20; Dosed remained (day 179): 20; Dosed remained (day 179.999): 20; Dosed remained (day 180): 20; Dosed remained (day 180.999): 20; Dosed remained (day 181): 20; Dosed remained (day 181.999): 20; Dosed remained (day 182): 20; Dosed remained (day 182.999): 20; Dosed remained (day 183): 20; Dosed remained (day 183.999): 20; Dosed remained (day 184): 20; Dosed remained (day 184.999): 20; Dosed remained (day 185): 10; Dosed remained (day 185.999): 10; Dosed remained (day 186): 10; Dosed remained (day 186.999): 10; Dosed remained (day 187): 10; Dosed remained (day 187.999): 10; Dosed remained (day 188): 10; Dosed remained (day 188.999): 10; Dosed remained (day 189): 10; Dosed remained (day 189.999): 10; Dosed remained (day 190): 0; Dosed remained (day 190.999): 0; survival (dosed, mean +/− STD, control 153 +/− 15 days): 169 ± 11 days

Source: PMC10826971, “Evaluating protein cross-linking as a therapeutic strategy to stabilize SOD1 variants in a mouse model of familial ALS” (PLOS Biology, 2024)
